The values that follow come from ChEMBL document CHEMBL1145975, “Tricyclic indole-2-carboxylic acids: highly in vivo active and selective antagonists for the glycine binding site of the NMDA receptor” (J Med Chem, 2003).

In series [1] the target is T1, Glutamate receptor ionotropic, NMDA 1 (Rattus norvegicus, UniProt P35439). Nature of the series: Affinity for glycine site of N-methyl-D-aspartate glutamate receptor determined by displacement of tritium labeled selective glycine antagonist [3H]- SM-18400. The series is classed as functional.
Series [2] deals with Mus musculus. Nature of the series: Number of mice protected from tonic seizures to that of number tested was determined when compound (3 mg/kg) was administered intravenously to 10 mice. The class given is functional.
The species entered for series [3] is Mus musculus. Put plainly: Effective dose of compound required to inhibit N-methyl D-aspartate induced seizures in mice. The class given is functional.
For series [4], the system named is Rattus norvegicus. Put plainly: Percent of reduction of cortical infarct volume at dose of 20 mg/kg bolus +20 mg/kg/hr continuous infusion was determined in normotensive rats. The class given is functional.
Series [5] concerns the target T1, Glutamate receptor ionotropic, NMDA 1. Nature of the series: Binding affinity for glycine site of N-methyl-D-aspartate glutamate receptor determined by displacement of [3H]- glycine in rat cortical membranes. The series is classed as cell membranes, Membrane. (In general: Displacement assays read how much labelled ligand stays bound in the presence of the test substance.)

For series [6], the species on record is Rattus norvegicus. Put plainly: Area under the concentration-time curve from time zero to infinity in whole brain homogenates was determined. The class given is ADME, organism-based. Conditions: in vivo.
Series [7] can be described thus: Binding affinity for glutamate site of N-methyl-D-aspartate glutamate receptor determined by displacement of [3H]- glutamate in rat cortical membranes. The class given is cell membranes, Membrane.
Series [8] deals with Glutamate receptor ionotropic, AMPA (Rattus norvegicus, UniProt P19490+P19491+P19492+P19493). Put plainly: Binding affinity for non-NMDA receptor determined by displacement of [3H]- AMPA (2-amino-(3-(3-hydroxy-5-methylisoxazole-4-yl)propanoic acid)) in rat cortical membranes. The series is classed as cell membranes, Membrane.
The target of series [9] is Glutamate receptor ionotropic, kainate. Nature of the series: Binding affinity for non-NMDA receptor determined by displacement of [3H]- KA (kainic acid) in rat cortical membranes. The series is classed as cell membranes, Membrane.
Series [10] has as its target T1, Glutamate receptor ionotropic, NMDA 1. Nature of the series: Binding affinity for glycine site of N-methyl-D-aspartate glutamate receptor determined by displacement of [3H]- DCKA (5,7-dichlorokynurenic acid) in rat cortical membranes. The series is classed as cell membranes, Membrane.

Broadly, the IC50 is the concentration at which inhibition is half-maximal. Usually ED50 stands for the midpoint of the dose-response relation. The Ki is the dissociation constant of the complex between target and ligand, obtained from inhibition or displacement. High values mean weaker binding, low ones tighter binding.

`NCc1ccc(NC(=O)C[C@@H]2CCc3cc(Cl)cc4[nH]c(C(=O)O)c2c34)cc1` came in with an IC50 in series [1] of 18 nM. For the same compound, the No. of protected/tested in [2] was found to be 3.

`NCc1ccc(NC(=O)C[C@@H]2CCc3cc(Cl)cc4[nH]c(C(=O)O)c2c34)c(OCC(=O)O)c1` (stereo in doubt; 3a) showed an ED50 in [3] of 5 mg/kg. Moreover, in series [1], the IC50 worked out at 1.2 nM. The same compound yielded a No. of protected/tested in series [2] of 2.

In the case of `NCc1ccc(NC(=O)C[C@@H]2CCc3cc(Cl)cc4[nH]c(C(=O)O)c2c34)c(CC(=O)O)c1`, in [3], the ED50 amounted to 1.8 mg/kg. In [1], this compound returned an IC50 of 1.5 nM. For the same compound, the No. of protected/tested in [2] came out at 5. The compound also displayed a Cortical infarct volume in series [4] of 30%.

On to `NCc1ccc(NC(=O)C[C@@H]2CCc3cc(Cl)cc4[nH]c(C(=O)O)c2c34)c(OCC(=O)O)c1` (stereo in doubt; 3b), for which the IC50 in [1] was found to be 33 nM. This lies in the double-digit nanomolar range.

With `C[C@@H](C(=O)O)c1cc(CN)ccc1NC(=O)C[C@@H]1CCc2cc(Cl)cc3[nH]c(C(=O)O)c1c23`, the ED50 in [3] was 2.3 mg/kg. Further, the Ki is 11 nM in [5]; over 10000 nM in series [7]; over 10000 nM in [8]; over 10000 nM in series [9]; 1 nM in series [10]. This compound also came in with an AUC in series [6] of 10 µg·min/g. Besides, the IC50 in [1] came to 2.7 nM. In series [2], this compound returned a No. of protected/tested of 5. Besides, the Cortical infarct volume in series [4] turned out to be 84%.

In [1], `O=C(C[C@@H]1CCc2cc(Cl)cc3[nH]c(C(=O)O)c1c23)Nc1ccccc1` showed an IC50 of 19 nM. Also, in series [2], the No. of protected/tested was 3.

Compound `NCc1ccc(NC(=O)C[C@@H]2CCc3cc(Cl)cc4[nH]c(=O)c(=O)n2c34)c(OCC(=O)O)c1` registered an ED50 in series [3] of 0.41 mg/kg. This compound yielded an AUC in series [6] of 3.3 µg·min/g. The compound further yielded an IC50 in series [1] of 1 nM. Further, in series [2], the No. of protected/tested is recorded as 10. In series [4], this compound had a Cortical infarct volume of 50%.

In turn, `O=C(O)Cc1ccccc1NC(=O)C[C@@H]1CCc2cc(Cl)cc3[nH]c(C(=O)O)c1c23` registered an IC50 in series [1] of 7.6 nM. The No. of protected/tested in series [2] turned out to be 3.

Compound `C[C@H](C(=O)O)c1cc(CN)ccc1NC(=O)C[C@@H]1CCc2cc(Cl)cc3[nH]c(C(=O)O)c1c23` gave an ED50 in series [3] of 3.7 mg/kg. Also, the IC50 in series [1] was 29 nM. Also, the No. of protected/tested in series [2] turned out to be 4.
